Read-outs that look alike come from different tables or passages of the source.
Key:
[1] = test system: S. cerevisiae wildtype and deletion strains; type: cell-based
[2] = test system: S. cerevisiae single-deletion yeast strains; experiment: High-throughput 96-well screen of AF sensitivity of single-gene knockouts (CFU at start and after 8 hours); type: cell-based
Procedure: To identify genes critical to AF action, the AF sensitivity of single-gene knockouts identified through the common transcriptional analysis were identified. In the first pass-through, 56 testable genes were identified. This set was later expanded to include targets identified through phenotypic analysis and metabolomic profiling, for a total of 84 target genes (Table 2). The initial 56 targets were tested using a rapid high-throughput 96-well assay with AMB and MCZ to identify single-gene knockouts with elevated resistance to AFs (Table 2). Knockouts that were more resistant to at least one of the AFs were tested individually using the 24-well colony forming (CF) assay. Target genes selected after the initial 56 strains were assayed individually using the 24-well CF assay.
The first 56 S. cerevisiae strains were acquired from the deletion library and stored in 96-well plates in replicates of three. To start the assay, the plates were defrosted and 10 μl of stored cells were inoculated into 100 μl of fresh synthetic dextrose complete (SDC) media for 16 hours. These overnight cultures were diluted into a fresh 96-well plate with 100 μl of SDC to achieve an OD600 of approximately 0.2. Colony forming units (CFU) in each well were measured at the start of the assay and after 8 hours of incubation. The AF susceptibility of each strain was compared to that of wildtype. Strains with significant susceptibility differences from wildtype were assayed in 0.5 ml of SDC media using the 24-well plate CF assay described above.

[3] = S. cerevisiae PAB102, HSP104 deletion

C[C@@H]1[C@H](O)[C@@H](C)/C=C/C=C/C=C/C=C/C=C/C=C/C=C/[C@H](O[C@@H]2O[C@H](C)[C@@H](O)[C@H](N)[C@@H]2O)C[C@@H]2O[C@](O)(C[C@@H](O)C[C@@H](O)[C@H](O)CC[C@@H](O)C[C@@H](O)CC(=O)O[C@H]1C)C[C@H](O)[C@H]2C(=O)O [AMB, amphotericin B]
additive resistance on deleting the remaining citrate synthases in the cit3 background ([1]; S. cerevisiae CIT1/CIT2 deletions in cit3 background): additive resistance | CFU (24-well colony forming assay), AF susceptibility vs wildtype ([1]; S. cerevisiae PAB101, WT): Normal | CFU (24-well colony forming assay), AF susceptibility vs wildtype [1, 3]: Normal | CFU (24-well colony forming assay), AF susceptibility vs wildtype ([1]; S. cerevisiae PAB103, SDH2 deletion): Resistant (″Resistant″ or ″Sensitive″ indicate at least a 5-fold CFU difference from wildtype at the final time point) | CFU (24-well colony forming assay), AF susceptibility vs wildtype ([1]; S. cerevisiae PAB104, FRE8 deletion): Resistant (″Resistant″ or ″Sensitive″ indicate at least a 5-fold CFU difference from wildtype at the final time point) | CFU (24-well colony forming assay), AF susceptibility vs wildtype ([1]; S. cerevisiae PAB105, CHA4 deletion): Resistant (″Resistant″ or ″Sensitive″ indicate at least a 5-fold CFU difference from wildtype at the final time point) | CFU (24-well colony forming assay), AF susceptibility vs wildtype ([1]; S. cerevisiae PAB106, FMS1 deletion): Resistant (″Resistant″ or ″Sensitive″ indicate at least a 5-fold CFU difference from wildtype at the final time point) | CFU (24-well colony forming assay), AF susceptibility vs wildtype ([1]; S. cerevisiae PAB107, NDE1 deletion): Resistant (″Resistant″ or ″Sensitive″ indicate at least a 5-fold CFU difference from wildtype at the final time point) | CFU (24-well colony forming assay), AF susceptibility vs wildtype ([1]; S. cerevisiae PAB108, ALD3 deletion): Normal | CFU (24-well colony forming assay), AF susceptibility vs wildtype ([1]; S. cerevisiae PAB112, MNE1 deletion): Resistant (″Resistant″ or ″Sensitive″ indicate at least a 5-fold CFU difference from wildtype at the final time point) | CFU (24-well colony forming assay), AF susceptibility vs wildtype ([1]; S. cerevisiae PAB113, FUM1 deletion): Resistant (″Resistant″ or ″Sensitive″ indicate at least a 5-fold CFU difference from wildtype at the final time point) | CFU (24-well colony forming assay), AF susceptibility vs wildtype ([1]; S. cerevisiae PAB114, TPK2 deletion): Resistant (″Resistant″ or ″Sensitive″ indicate at least a 5-fold CFU difference from wildtype at the final time point) | CFU (24-well colony forming assay), AF susceptibility vs wildtype ([1]; S. cerevisiae PAB116, ISU1 deletion): Normal | CFU (24-well colony forming assay), AF susceptibility vs wildtype ([1]; S. cerevisiae PAB117, CYC7 deletion): Normal | CFU (24-well colony forming assay), AF susceptibility vs wildtype ([1]; S. cerevisiae PAB119, CIT2 deletion): Resistant (″Resistant″ or ″Sensitive″ indicate at least a 5-fold CFU difference from wildtype at the final time point) | CFU (24-well colony forming assay), AF susceptibility vs wildtype ([1]; S. cerevisiae PAB120, HSP30 deletion): Normal | CFU (24-well colony forming assay), AF susceptibility vs wildtype ([1]; S. cerevisiae PAB121, SDH1 deletion): Resistant (″Resistant″ or ″Sensitive″ indicate at least a 5-fold CFU difference from wildtype at the final time point) | CFU (24-well colony forming assay), AF susceptibility vs wildtype ([1]; S. cerevisiae PAB122, TPK3 deletion): Resistant (″Resistant″ or ″Sensitive″ indicate at least a 5-fold CFU difference from wildtype at the final time point) | CFU (24-well colony forming assay), AF susceptibility vs wildtype ([1]; S. cerevisiae PAB123, ISU2 deletion): Normal | CFU (24-well colony forming assay), AF susceptibility vs wildtype ([1]; S. cerevisiae PAB124, TPK1 deletion): Resistant (″Resistant″ or ″Sensitive″ indicate at least a 5-fold CFU difference from wildtype at the final time point) | CFU (24-well colony forming assay), AF susceptibility vs wildtype ([1]; S. cerevisiae PAB132, CIT3 deletion): Resistant (″Resistant″ or ″Sensitive″ indicate at least a 5-fold CFU difference from wildtype at the final time point) | CFU (24-well colony forming assay), AF susceptibility vs wildtype ([1]; S. cerevisiae PAB135, NDI1 deletion): Resistant (″Resistant″ or ″Sensitive″ indicate at least a 5-fold CFU difference from wildtype at the final time point) | CFU (24-well colony forming assay), AF susceptibility vs wildtype ([1]; S. cerevisiae PAB145, CIT1 deletion): Resistant (″Resistant″ or ″Sensitive″ indicate at least a 5-fold CFU difference from wildtype at the final time point) | CFU (24-well colony forming assay), AF susceptibility vs wildtype ([1]; S. cerevisiae PAB149, YAK1 deletion): Sensitive (″Resistant″ or ″Sensitive″ indicate at least a 5-fold CFU difference from wildtype at the final time point) | CFU (24-well colony forming assay), AF susceptibility vs wildtype ([1]; S. cerevisiae PAB153, SHO1 deletion): Sensitive (″Resistant″ or ″Sensitive″ indicate at least a 5-fold CFU difference from wildtype at the final time point) | CFU (24-well colony forming assay), AF susceptibility vs wildtype ([1]; S. cerevisiae PAB155, FBP1 deletion): Sensitive (″Resistant″ or ″Sensitive″ indicate at least a 5-fold CFU difference from wildtype at the final time point) | CFU (24-well colony forming assay), AF susceptibility vs wildtype ([1]; S. cerevisiae PAB158, MSN4 deletion): Normal | CFU (24-well colony forming assay), AF susceptibility vs wildtype ([1]; S. cerevisiae PAB161, MSN2 deletion): Normal | CFU (24-well colony forming assay), AF susceptibility vs wildtype ([1]; S. cerevisiae PAB162, YAP1 deletion): Normal | CFU (24-well colony forming assay), AF susceptibility vs wildtype ([1]; S. cerevisiae PAB163, CIN5 deletion): Normal | CFU (24-well colony forming assay), AF susceptibility vs wildtype ([1]; S. cerevisiae PAB164, Pde2 deletion): Normal | CFU (24-well colony forming assay), AF susceptibility vs wildtype ([1]; S. cerevisiae PAB165, USV1 deletion): Normal | CFU (24-well colony forming assay), AF susceptibility vs wildtype ([1]; S. cerevisiae PAB166, CAD1 deletion): Normal | CFU (24-well colony forming assay), AF susceptibility vs wildtype ([1]; S. cerevisiae PAB167, RIM101 deletion): Normal | CFU (24-well colony forming assay), AF susceptibility vs wildtype ([1]; S. cerevisiae PAB168, RAS1 deletion): Resistant (″Resistant″ or ″Sensitive″ indicate at least a 5-fold CFU difference from wildtype at the final time point) | CFU (24-well colony forming assay), AF susceptibility vs wildtype ([1]; S. cerevisiae PAB169, HYR1 deletion): Resistant (″Resistant″ or ″Sensitive″ indicate at least a 5-fold CFU difference from wildtype at the final time point) | CFU (24-well colony forming assay), AF susceptibility vs wildtype ([1]; S. cerevisiae PAB170, CRZ1 deletion): Normal | CFU (24-well colony forming assay), AF susceptibility vs wildtype ([1]; S. cerevisiae PAB171, RAS2 deletion): Resistant (″Resistant″ or ″Sensitive″ indicate at least a 5-fold CFU difference from wildtype at the final time point) | CFU (24-well colony forming assay), AF susceptibility vs wildtype ([1]; S. cerevisiae PAB172, XBP1 deletion): Normal | CFU (24-well colony forming assay), AF susceptibility vs wildtype ([1]; S. cerevisiae PAB173, SRV2 deletion): Normal | CFU (24-well colony forming assay), AF susceptibility vs wildtype ([1]; S. cerevisiae PAB174, TPS3 deletion): Resistant (″Resistant″ or ″Sensitive″ indicate at least a 5-fold CFU difference from wildtype at the final time point) | CFU (24-well colony forming assay), AF susceptibility vs wildtype ([1]; S. cerevisiae PAB175, TPS2 deletion): Sensitive (″Resistant″ or ″Sensitive″ indicate at least a 5-fold CFU difference from wildtype at the final time point) | CFU (24-well colony forming assay), AF susceptibility vs wildtype ([1]; S. cerevisiae PAB177, SOD2 deletion): Normal | CFU (24-well colony forming assay), AF susceptibility vs wildtype ([1]; S. cerevisiae PAB178, CTA1 deletion): Normal | CFU (24-well colony forming assay), AF susceptibility vs wildtype ([1]; S. cerevisiae PAB179, CTT1 deletion): Normal | CFU (24-well colony forming assay), AF susceptibility vs wildtype ([1]; S. cerevisiae PAB180, MET1 deletion): Normal | CFU (24-well colony forming assay), AF susceptibility vs wildtype ([1]; S. cerevisiae PAB181, TVP18 deletion): Normal | CFU (24-well colony forming assay), AF susceptibility vs wildtype ([1]; S. cerevisiae PAB182, PML39 deletion): Normal | CFU (24-well colony forming assay), AF susceptibility vs wildtype ([1]; S. cerevisiae PAB183, VPS9 deletion): Normal | higher drug concentration required by citrate synthase triple mutant to achieve the sensitivity of the single mutants ([1]; S. cerevisiae cit1 cit2 cit3 triple mutant, 3 hours of drug exposure): more than 8 fold | reduction of killing at 3 hours by thiourea ([1]; S. cerevisiae, 50 mM thiourea for 30 minutes prior to the addition of AF drugs): ~15 fold | 96 Well Screen, AF susceptibility vs wildtype ([2]; S. cerevisiae PAB101, WT): Normal | 96 Well Screen, AF susceptibility vs wildtype [2, 3]: Resistant (″Resistant″ or ″Sensitive″ indicate at least a 5-fold CFU difference from wildtype at the final time point)
